Patent publication US20120208781A1, “AMINOGLYCOSIDE DOSING REGIMENS” (Achaogen, Inc., priority 2009, published 2012)
Converted amounts (≈) assume the structure as drawn. Where two headings read alike, the source gives them in different places.

Columns and labels:
[1] = Phase 1 study 15 mg/kg/day once daily for five days: pharmacokinetics; assay type: in vivo; details: human
Method: An additional randomized, double-blind, placebo-controlled study was performed to assess the safety and pharmacokinetics of Compound 1 following IV administration to healthy adult volunteers according to a high dose, short course regimen of 15 mg/kg/day of Compound 1 administered once daily for five days. Compound 1 was formulated as a sterile solution at a concentration of 50 mg/mL in 10 mL glass vials for intravenous (IV) administration (“Compound 1 Injection”). Eight healthy subjects were randomized to receive either Compound 1 Injection or placebo administered IV by 10 minute infusion daily for five days. Seven subjects received 5 doses and one received 3 doses (early withdrawal for personal reasons).

Enterobacter spp. (EB) = assay: MIC, broth microdilution, Brooklyn hospital isolates: Enterobacter spp.; assay type: cell-based; details: Enterobacter; EB (n = 30)
Method: In another study, the activity of Compound 1 against a collection of contemporary Gram-negative bacteria was determined. Unique patient isolates of P. aeruginosa (PA), A. baumannii (AB), K. pneumoniae (KP), E. coli (EC), and Enterobacter spp. (EB) from prior surveys at 16 Brooklyn, N.Y. hospitals were selected based on resistance patterns. The majority of isolates were fingerprinted by automated ribotyping. MICs were performed by broth microdilution. PCR was used to identify aminoglycoside-modifying enzymes (AMEs) in AB and KP and the KPC gene in Enterobacteriaceae (EN). The expression of the efflux genes mexA, C, E and X in PA, and adeB in AB was assessed by real-time RT-PCR.

[2] = Pharmacokinetics of Compound 1 after single bolus IV injection in mice; assay type: in vivo, CD-1 mice; details: 10 mg/kg single bolus IV; for C0: 10 mg/kg
Method: Male CD-1 mice, Sprague Dawley rats, and beagle dogs were administered Compound 1 intravenously. Compound 1 was preformulated as a sterile isotonic solution of 10 mg/mL in PBS. Specifically, male CD-1 mice were administered a single bolus IV injection of the Compound at 10 mg/kg, via a bolus IV injection into the tail vein. Two blood samples per mouse were collected by retro-orbital puncture into tubes containing the anticoagulant K2EDTA prior to dosing and at 0.033, 0.083, 0.25, 0.5, 1 and 24 hours. Rats were administered Compound 1 at 10 mg/kg via a bolus IV injection into the tail vein. Twelve blood samples per rat were collected via a jugular vein cannula into tubes containing the anticoagulant K2EDTA at various timepoints (i.e., 0.033, 0.083, 0.25, 0.5, 1, 2, 4, 6, 8, 10, 12, and 24 hours). Male beagle dogs were administered Compound 1 at 10 mg/kg through a temporary percutaneous catheter placed in a peripheral vein. Whole blood samples (0.5 mL) were collected from each dog prior to dosing and at 0.033, 0.083, 0.25, 0.5, 1, 2, 4, 6, 8, and 24 hours via direct venipuncture of a jugular or cephalic vein into tubes containing the anticoagulant K2EDTA. A sparse sampling method was employed to conserve animals and provide the best data possible from fewer mice. Samples were centrifuged, and plasma was collected and transferred into a new tube and frozen at −80° C. until they were analyzed.
Blood, urine, and kidney samples collected over 24 hours were analyzed for Compound 1 levels using LC-MS/MS. Method performance was acceptable in the concentration ranges necessary to determine plasma levels. Compound 1 plasma concentrations were determined by comparing Compound 1 concentration in the sample to a standard curve derived from LC-MS/MS measurements of the analyte. The standard curve fit was linear with a 1/x^2 weighting.
Bioanalytical data analyses were carried out using Analyst software (version 1.4.1, Applied Biosystems, Toronto, ON, Canada). […] PK parameters were determined by noncompartmental analysis using WinNonLin. Plasma protein binding was determined using equilibrium dialysis. In vitro stability was determined using commercially available plasma, microsomes and hepatocytes.

[3] = tested on: cochlear function, vestibular function; assay: First-in-human phase 1 study: cochlear and vestibular function (ototoxicity); assay type: in vivo; details: healthy volunteers
Method: Safety evaluation was based on clinical observations, vital sign measurements, laboratory tests, physical examination, electrocardiogram, cochlear function, vestibular function testing, and reported adverse events. Cochlear function was evaluated by pure tone audiometry with bone conduction and otoacoustic emission (OAE) testing. Vestibular function was evaluated by electronystagmography (ENG) and Dynamic Visual Acuity (DVA) test. Laboratory tests included complete blood count (CBC), serum chemistries, and urinalysis. BUN and creatinine (Cr) were assessed daily on dosing days to allow the Investigator to monitor renal function. Results were used as criteria for dose escalation. The glomerular filtration rate (GFR) was estimated using iothalamate plasma measurements before dosing and after the multiple dose periods. GFR was also assessed by Cr clearance before dosing and after the multiple dose periods.
Complete physical examinations and ECGs were completed at screen and 2 days after the last multiple-dose. Abbreviated physical examinations were completed prior to the single-dose and prior to the first multiple-dose (those receiving IMP for 10 days have an additional examination prior to the 6th multiple-dose infusion). Vital signs were assessed at screen and all visits during treatment period. Additional safety assessments, including pure tone audiometry and ENG caloric, testing was performed or will be performed at 3 and 6 months after the last dose. Concomitant therapies and adverse events are assessed throughout the screen and treatment period.

[4] = after 5 days of once-daily IV 15 mg/kg
[5] = plasma, after 5 days of once-daily IV 15 mg/kg

## CN[C@@H]1[C@@H](O)[C@@H](O[C@@H]2[C@@H](O)[C@H](O[C@H]3OC(CNCCO)=CC[C@H]3N)[C@@H](N)C[C@H]2NC(=O)[C@@H](O)CCN)OC[C@]1(C)O [Compound 1, 6′-(2-Hydroxy-ethyl)-1-(4-amino-2(S)-hydroxy-butyryl)-sisomicin]
[1]; [4]
  area under the plasma concentration-time curve: 239 µg·h/mL
  fluctuation index: > 1000%
  trough (Cmin): 0.4 µg/mL
[1]; once-daily dosing for up to 5 days
  drug accumulation: lack of appreciable drug accumulation
[1]; plasma, intravenous, 15 mg/kg, read-out: average AUC in humans
  AUC: ~240 µg·h/mL
[1]; [5]
  clearance: 1.1 mL/min/kg
  half-life: ~3 h
[1]; plasma, after 5 days of once-daily IV 15 mg/kg, read-out: peak (Cmax)
  Cmax: 113 µg/mL
[1]; plasma, after 5 days of once-daily IV 15 mg/kg, read-out: steady state volume of distribution
  Vd: 0.24 L/kg
Enterobacter spp. (EB)
  MIC50: 1 µg/mL (≈ 1.69 µM)
  MIC90: 4 µg/mL (≈ 6.75 µM)
[2]
  C0: 87.6 µg/mL
[2]; male, CD-1, mouse, plasma
  AUC(0-inf): 18.5 µg·h/mL
  clearance: 9.02 mL/min/kg
  half-life: 1.4 h
[2]; male, CD-1, mouse, plasma, read-out: MRT0-∞
  MRT inf: 0.6 h
[2]; male, CD-1, mouse, plasma, read-out: Vss
  Vd: 0.34 L
[2]; male, CD-1, mouse, plasma, read-out: volume of distribution at steady state (Vss)
  Vd: 0.34 L/kg
[2]; male, CD-1, mouse, plasma, iv, read-out: C0
  C0: 88 µg/mL
[3]
  cochlear function (pure tone audiometry, bone conduction, OAE): did not reveal any treatment related effects
  ototoxicity signal: No ototoxocity signal
  vestibular function (ENG and DVA): did not reveal any treatment related effects
